Test results as given in patent US20170239249A1, “QUINAZOLINE-BASED KINASE INHIBITORS” (Bristol-Myers Squibb Company, priority 2014, published 2017).

molecular target: AAK1 (full length human) (Homo sapiens, UniProt Q2M2I8); experiment: HEK281 Cell-Based Assay (phospho-mu2 Western blot in HEK293F cells transfected with AAK1 and AP2M1); conditions: IC50 (nM), functional potency; inhibition of mu2 phosphorylation in HEK293F cells, 3 hours incubation, 5 concentrations
Sequence (Q2M2I8 1-863 isoform Q2M2I8-2): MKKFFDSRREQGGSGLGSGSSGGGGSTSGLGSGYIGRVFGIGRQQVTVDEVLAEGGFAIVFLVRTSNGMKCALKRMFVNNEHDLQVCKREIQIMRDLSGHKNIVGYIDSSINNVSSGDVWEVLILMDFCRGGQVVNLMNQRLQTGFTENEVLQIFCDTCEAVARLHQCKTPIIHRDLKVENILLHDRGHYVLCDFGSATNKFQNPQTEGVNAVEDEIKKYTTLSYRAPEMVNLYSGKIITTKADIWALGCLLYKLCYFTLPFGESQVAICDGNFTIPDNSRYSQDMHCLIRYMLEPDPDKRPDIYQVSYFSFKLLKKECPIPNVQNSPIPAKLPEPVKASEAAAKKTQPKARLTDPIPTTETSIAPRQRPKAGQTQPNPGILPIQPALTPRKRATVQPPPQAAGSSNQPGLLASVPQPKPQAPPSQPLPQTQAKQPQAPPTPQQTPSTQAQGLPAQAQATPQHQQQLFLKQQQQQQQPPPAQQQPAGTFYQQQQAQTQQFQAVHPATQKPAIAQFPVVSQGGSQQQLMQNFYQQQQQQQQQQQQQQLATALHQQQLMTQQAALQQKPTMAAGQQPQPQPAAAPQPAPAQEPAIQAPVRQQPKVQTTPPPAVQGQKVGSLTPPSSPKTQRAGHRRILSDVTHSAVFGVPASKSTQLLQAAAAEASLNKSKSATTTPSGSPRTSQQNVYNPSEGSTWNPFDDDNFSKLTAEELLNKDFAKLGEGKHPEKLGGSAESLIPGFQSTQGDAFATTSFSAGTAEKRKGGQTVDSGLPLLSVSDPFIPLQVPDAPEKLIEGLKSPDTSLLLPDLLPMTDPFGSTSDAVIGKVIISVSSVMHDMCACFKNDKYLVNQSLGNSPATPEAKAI

IC50	Compound
360 nM	CC(C)CC(N)c1nc(N(C)C)c2cc(-c3cnco3)ccc2n1 (centres unmarked) [Example 17, 2-(1-Amino-3-methylbut)-N,N-dimethyl-6-(oxazol-5-yl)quinazolin-4-amine]
130 nM	CCN(CC)c1nc(C(N)CC(C)C)nc2ccc(-c3cnco3)cc12 (centres unmarked) [Example 18, 2-(1-Amino-3-methylbutyl)-N,N-diethyl-6-(oxazol-5-yl)quinazolin-4-amine]
760 nM	CC(C)CC(N)c1nc(N2CCCC2)c2cc(-c3cnco3)ccc2n1 (centres unmarked) [Example 19, 3-Methyl-1-(6-(oxazol-5-yl)-4-(pyrrolidin-1-yl)quinazolin-2-yl)butan-1-amine]
850 nM	CCNc1nc(C(N)CC(C)C)nc2ccc(-c3cnco3)cc12 (centres unmarked) [Example 20, 2-(1-Amino-3-methylbutyl)-N-ethyl-6-(oxazol-5-yl)quinazolin-4-amine]
1200 nM	CC(C)CC(N)c1nc(NCCO)c2cc(-c3cnco3)ccc2n1 (centres unmarked) [Example 21, 2-((2-(1-Amino-3-methylbutyl)-6-(oxazol-5-yl)quinazolin-4-yl)amino)ethanol]
1300 nM	COCCNc1nc(C(N)CC(C)C)nc2ccc(-c3cnco3)cc12 (centres unmarked) [Example 22, 2-(1-Amino-3-methylbutyl)-N-(2-methoxyethyl)-6-(oxazol-5-yl)quinazolin-4-amine]
79 nM	CNc1nc(C(N)CC(C)C)nc2ccc(-c3ccncc3)cc12 (centres unmarked) [Example 23, 2-(1-Amino-3-methylbutyl)-N-methyl-6-(pyridin-4-yl)quinazolin-4-amine]
86 nM	CCNc1nc(C(N)CC(C)C)nc2ccc(-c3ccncc3)cc12 (centres unmarked) [Example 24, 2-(1-Amino-3-methylbutyl)-N-ethyl-6-(pyridin-4-yl)quinazolin-4-amine]
22 nM	CCN(CC)c1nc(C(N)CC(C)C)nc2ccc(-c3ccncc3)cc12 (centres unmarked) [Example 25, 2-(1-Amino-3-methylbutyl)-N,N-diethyl-6-(pyridin-4-yl)quinazolin-4-amine]
31 nM	COc1cnccc1-c1ccc2nc(C(N)CC(C)C)nc(N(C)C)c2c1 (centres unmarked) [Example 26, 2-(1-Amino-3-methylbutyl)-6-(3-methoxypyridin-4-yl)-N,N-dimethylquinazolin-4-amine]
20 nM	CCN(CC)c1nc(C(N)CC(C)C)nc2ccc(-c3ccncc3OC)cc12 (centres unmarked) [Example 27, 2-(1-Amino-3-methylbutyl)-N,N-diethyl-6-(3-methoxypyridin-4-yl)quinazolin-4-amine]
380 nM	CCNc1nc(C(N)CC(C)C)nc2ccc(-c3ccncc3OC)cc12 (centres unmarked) [Example 28, 2-(1-Amino-3-methylbutyl)-N-ethyl-6-(3-methoxypyridin-4-yl)quinazolin-4-amine]
54 nM	COc1cnccc1-c1ccc2nc(CCC(C)C)nc(N(C)C)c2c1 [Example 29, 2-Isopentyl-6-(3-methoxypyridin-4-yl)-N,N-dimethylquinazolin-4-amine]
17 nM	CC(C)CC(N)c1nc(C#N)c2cc(-c3cnco3)ccc2n1 (centres unmarked) [Example 30, 2-(1-Amino-3-methylbutyl)-6-(oxazol-5-yl)quinazoline-4-carbonitrile]
640 nM	CC(C)CCc1nc(C#N)c2cc(-c3cnco3)ccc2n1 [Example 31, 2-Isopentyl-6-(oxazol-5-yl)quinazoline-4-carbonitrile]
6 nM	COc1cc2nc(C(N)CC(C)C)nc(C#N)c2cc1-c1cnco1 (centres unmarked) [Example 32, 2-(1-Amino-3-methylbutyl)-7-methoxy-6-(oxazol-5-yl)quinazoline-4-carbonitrile]
14 nM	CC(C)CC(N)c1nc(C#N)c2cc(-c3ccncc3)ccc2n1 (centres unmarked) [Example 33, 2-(1-Amino-3-methylbutyl)-6-(pyridin-4-yl)quinazoline-4-carbonitrile]
12 nM	COc1cnccc1-c1ccc2nc(C(N)CC(C)C)nc(C#N)c2c1 (centres unmarked) [Example 34, 2-(1-Amino-3-methylbutyl)-6-(3-methoxypyridin-4-yl)quinazoline-4-carbonitrile]
68 nM	COc1cc2nc(C(N)CC(C)C)nc(C#N)c2cc1-c1ccncc1 (centres unmarked) [Example 35, 2-(1-Amino-3-methylbutyl)-7-methoxy-6-(pyridin-4-yl)quinazoline-4-carbonitrile]
113 nM	COc1cc2nc([C@H](N)CC(C)C)ncc2cc1-c1cnco1 [Example 36, (R)-1-(7-Methoxy-6-(oxazol-5-yl)quinazolin-2-yl)-3-methylbutan-1-amine]
1010 nM	COc1nc(CCC(C)C)nc2ccc(-c3cn[nH]c3)cc12 [Example 37, 2-Isopentyl-4-methoxy-6-(1H-pyrazol-4-yl)quinazoline]
1070 nM	COc1nc(CCC(C)C)nc2ccc(-c3ccncc3)cc12 [Example 38, 2-Isopentyl-4-methoxy-6-(pyridin-4-yl)quinazoline]
1140 nM	CNc1nc(CCC(C)C)nc2ccc(-c3cnco3)cc12 [Example 39, 2-Isopentyl-N-methyl-6-(oxazol-5-yl)quinazolin-4-amine]
412 nM	CC(C)CCc1nc(N(C)C)c2cc(-c3cnco3)ccc2n1 [Example 40, 2-Isopentyl-N,N-dimethyl-6-(oxazol-5-yl)quinazolin-4-amine]
3150 nM	COc1nc(CCC(C)C)nc2ccc(-c3cnco3)cc12 [Example 41, 5-(2-Isopentyl-4-methoxyquinazolin-6-yl)oxazole]

IC50	Compound
49 nM	CC(C)CCc1nc2ccc(-c3cnco3)cc2c(=O)[nH]1 [Example 42, 2-Isopentyl-6-(oxazol-5-yl)quinazolin-4(3H)-one]
159 nM	CSc1nc(CCC(C)C)nc2ccc(-c3cnco3)cc12 [Example 43, 5-(2-Isopentyl-4-(methylthio)quinazolin-6-yl)oxazole]
2010 nM	CC(C)CCc1nc(NCCN)c2cc(-c3cnco3)ccc2n1 [Example 44, N^1-(2-Isopentyl-6-(oxazol-5-yl)quinazolin-4-yl)ethane-1,2-diamine]
400 nM	CCc1nc(CCC(C)C)nc2ccc(-c3ccncc3)cc12 [Example 45, 4-Ethyl-2-isopentyl-6-(pyridin-4-yl)quinazoline]
1390 nM	CC(C)CCc1nc(C(C)C)c2cc(-c3ccncc3)ccc2n1 [Example 46, 2-Isopentyl-4-isopropyl-6-(pyridin-4-yl)quinazoline]
1340 nM	CC(C)CCc1nc(C2CC2)c2cc(-c3ccncc3)ccc2n1 [Example 47, 4-Cyclopropyl-2-isopentyl-6-(pyridin-4-yl)quinazoline]
1190 nM	CC(C)CCc1nc(NCCN(C)C)c2cc(-c3ccncc3)ccc2n1 [Example 48, N-(2-Isopentyl-6-(pyridin-4-yl)quinazolin-4-yl)-N^2,N^2-dimethylethane-1,2-diamine]
54 nM	CC(C)CCc1nc2ccc(-c3ccncc3)cc2c(=O)[nH]1 [Example 49, 2-Isopentyl-6-(pyridin-4-yl)quinazolin-4(3H)-one]
301 nM	CC(C)CCc1nc(NCCO)c2cc(-c3ccncc3)ccc2n1 [Example 50, 2-(2-Isopentyl-6-(pyridin-4-yl)quinazolin-4-ylamino)ethanol]
22 nM	CC(C)CCc1nc2ccc(-c3cn[nH]c3)cc2c(=O)[nH]1 [Example 51, 2-Isopentyl-6-(1H-pyrazol-4-yl)quinazolin-4(3H)-one]
1270 nM	CCc1nc(CCC(C)C)nc2cc(OC)c(-c3cnco3)cc12 [Example 52, 5-(4-Ethyl-2-isopentyl-7-methoxyquinazolin-6-yl)oxazole]
354 nM	CC(C)CCc1nc(C(N)=O)c2cc(-c3ccncc3)ccc2n1 [Example 53, 2-Isopentyl-6-(pyridin-4-yl)quinazoline-4-carboxamide]
2590 nM	CCOc1cc2nc(CCC(C)C)nc(CC)c2cc1-c1cnco1 [Example 54, 5-(7-Ethoxy-4-ethyl-2-isopentylquinazolin-6-yl) oxazole]
97 nM	COc1nc(C(N)CC(C)C)nc2ccc(-c3ccncc3)cc12 (centres unmarked) [Example 55, 1-(4-Methoxy-6-(pyridin-4-yl)quinazolin-2-yl)-3-methylbutan-1-amine]
5 nM	CC(C)CCc1nc2ccc(-c3cnco3)cc2c(=S)[nH]1 [Example 56, 2-Isopentyl-6-(oxazol-5-yl)quinazoline-4(3H)-thione]
1860 nM	CCc1nc(CCC(C)C)nc2ccc(-c3cnco3)cc12 [Example 57, 5-(4-Ethyl-2-isopentylquinazolin-6-yl)oxazole]
20 nM	COc1cc2nc(CCC(C)C)[nH]c(=O)c2cc1-c1cnco1 [Example 58, 2-Isopentyl-7-methoxy-6-(oxazol-5-yl)quinazolin-4(3H)-one]
2670 nM	CC(C)CCc1nc(C(=O)N(C)C)c2cc(-c3ccncc3)ccc2n1 [Example 59, 2-Isopentyl-N,N-dimethyl-6-(pyridin-4-yl)quinazoline-4-carboxamide]
144 nM	CC(C)CCc1nc(C#N)c2cc(-c3ccncc3)ccc2n1 [Example 60, 2-Isopentyl-6-(pyridin-4-yl)quinazoline-4-carbonitrile]
35 nM	CC(C)CCC1=Nc2ccc(-c3ccncc3)cc2C(CO)N1 (centres unmarked) [Example 61, (2-Isopentyl-6-(pyridin-4-yl)-3,4-dihydroquinazolin-4-yl)methanol]
37 nM	CCc1nc(C(N)CC(C)C)nc2ccc(-c3ccncc3)cc12 (centres unmarked) [Example 62, 1-(4-Ethyl-6-(pyridin-4-yl)quinazolin-2-yl)-3-methylbutan-1-amine]
28 nM	CCc1nc(C(N)CC(C)C)nc2ccc(-c3cn[nH]c3)cc12 (centres unmarked) [Example 63, 1-(4-Ethyl-6-(1H-pyrazol-4-yl)quinazolin-2-yl)-3-methylbutan-1-amine]
83 nM	CCc1nc(C(N)CC(C)C)nc2ccc(-c3ccncn3)cc12 (centres unmarked) [Example 64, 1-(4-Ethyl-6-(pyrimidin-4-yl)quinazolin-2-yl)-3-methylbutan-1-amine]
223 nM	CCc1nc(C(C)CC(C)C)nc2ccc(-c3ccncc3)cc12 (centres unmarked) [Example 65, 4-Ethyl-2-(4-methylpentan-2-yl)-6-(pyridin-4-yl)quinazoline]
258 nM	CCc1nc(C(C)CC(C)C)nc2ccc(-c3ccnc(NC(C)=O)c3)cc12 (centres unmarked) [Example 66, N-(4-(4-Ethyl-2-(4-methylpentan-2-yl)quinazolin-6-yl)pyridin-2-yl)acetamide]
